Reference: paper PMC5526551, “New hydrazonoindolin-2-ones: Synthesis, exploration of the possible anti-proliferative mechanism of action and encapsulation into PLGA microspheres” (PLoS ONE, 2017)
Read-outs that look alike come from different tables or passages of the source.

Tests used:
MCF-10A = test: Selectivity: growth inhibition in non-tumorigenic cell line; type: cell-based, human; details: 72 h, maximum 25 μM, read-out: IC50 Breast MCF-10A
Experimental: This assessment of the growth inhibitory activity of the compounds was tested in quadruplicate at a maximum concentration of 25 μM, followed by 10 serially diluted concentrations.
A549, IEC-6, MCF-10A and 3t3 cells were harvested from 90-95% confluent cultures in 10 cm dishes, and diluted in growth media recommended by the suppliers as follows: A549 cells were cultured in RPMI-1640 medium supplemented with 5% fetal bovine serum (FBS). IEC-6 cells were obtained from ATCC and cultured in Dulbecco’s modified Eagle’s medium (DMEM) supplemented with 10% FBS and 0.1 unit/mL recombinant insulin. Swiss 3t3 cells were obtained from ATCC and cultured in DMEM supplemented with 10% FBS. MCF-10Acells were obtained from ATCC and cultured in a mixture DMEM and F12 media supplemented with 5% fetal bovine serum (FBS), 20 ng/mL recombinant epidermal growth factor, 10 µg/mL insulin, 0.5 µg/mL hydrocortisone and 100 ng/mL cholera toxin. An appropriate concentration of cells was prepared to add 1,250 cells in a volume of 25 µL per well in tissue culture treated BD 384-well microplates, then incubated overnight at 37 °C.
Compound 7e and the positive control, sunitinib, were diluted to a concentration of 25 µM in DMSO. Concentrated dosing solutions (double the final concentration) were prepared by dilution of the DMSO stocks 1:500 in growth medium. Two-fold serial dilutions were then prepared in medium containing 0.2% DMSO to maintain a constant concentration of vehicle throughout the concentration range of the compound. […]
At the end of the treatment period, assay plates were allowed to cool to RT for 10 min prior to addition of 25 µL per well Promega CellTiterGlo reagent, followed by an additional 10 min incubation at RT. The resulting luminescence was quantitated using a Molecular Devices Spectramax Paradigm.Percent growth inhibition was calculated using equation (1). The potency of compounds was determined using the non-linear dose response algorithm (four-parameter logistic fit) with GraphPad Prism 5 software.

[1] = tested on: phosphorylated Rb protein in A549 cells; test: Rb phosphorylation (immunofluorescent imaging); type: cell-based; details: Homo sapiens, read-out: IC50 for reduction in Rb phosphorylation
Experimental: Compound 7e was analyzed for effects on various aspects of cell cycle progression in human cancer cells. These studies were carried out using cells derived from lung adenocarcinoma (A549). This follow-up assessment of activity tested compounds used immunofluorescent imaging of phosphorylated Rb protein and the total DNA content of each cell to determine the cell cycle phase. The ability of the test compounds to affect the cell cycle and Rb phosphorylation was tested over a range of concentrations from less than 100 nM to 50 μM.
Fig 5 Dose-dependent changes in cell cycle. Distribution of cells within the cell cycle as well as total cell numbers were quantitated by fluorescent staining of nuclear DNA with DAPI. Phosphorylated Rb protein was detected by indirect immunofluorescence followed by automated image acquisition and analysis. […] All IC50 values are given under one unlabelled substance, with the y-axis title of each plot written in front as the measure.
A549 cells were harvested from a 90% confluent 10 cm dish and diluted in growth medium. An appropriate concentration of cells were prepared to add 5,000 cells in a volume of 100 µL per well in tissue culture treated PerkinElmer optical bottom ViewPlate microplates, then incubated overnight at 37°C. The following day, compound 7e and the positive control, sunitinib, were diluted in DMSO to concentrations 1000-fold above the maximum tested concentration.
Concentrated dosing solutions of twice the final concentration were prepared by dilution of the DMSO stocks 1:500 in growth media. Three-fold dilutions of each dosing medium were then prepared in medium containing 0.2% DMSO to maintain a constant concentration of vehicle throughout the concentration range of each compound. Each of these was added in equal volume (100 µL) to each well on the assay plate, along with the vehicle control. One plate of cells was incubated with the compounds for a further 24 h, and a separate plate was incubated with the compounds for 48 h.
At the end of the respective treatment periods, 150 µL per well of neutral buffered formalin fixative (10% paraformaldehyde) was rapidly added to each plate and incubated at room temperature for 20 min. […] Phosphorylated Rb protein (p-Rb) was detected by 1 h incubation with anti-p-Rb rabbit monoclonal antibody (Cell Signaling #8516) diluted 1:1600 in antibody dilution buffer (1% bovine serum albumin and 0.3% Triton X-100 in PBS). […] Anti-Phospho Ser807/811-Rb antibody (Cell Signalling cat #8516) was detected by 1 h incubation with goat anti-rabbit AlexaFluor 488 conjugate (InVitrogen cat #A-11008) diluted 1:500 in antibody dilution buffer. […] Fluorescent micrographs were analyzed using Molecular Devices MetaXpress multi-wavelength scoring image analysis program to quantitate Rb phosphorylation. […]

Structure (SMILES) | IC50 (MCF-10A) [µM] | IC50 (MCF-10A; Homo sapiens, MCF-10A) [µM] | IC50 ([1]; A549, 24 h) [µM] | IC50 ([1]; A549, 48 h) [µM]
O=C1Nc2ccc(Br)cc2C1=NN=C1C(=O)N(Cc2ccccc2)c2ccccc21 [Compound 7e, 1-Benzyl-3-((5-bromo-2-oxoindolin-3-ylidene)hydrazono)indolin-2-one] | 1.75 | 1.76 | 2.55 | 2.47
CCN(CC)CCNC(=O)c1c(C)[nH]c(/C=C2\C(=O)Nc3ccc(F)cc32)c1C [Sunitinib, sunitinib, reference compound] |  | 4.43 | 3.16 | 14
